Where a SMILES comes first, the peptide text is derived from it. Bridges are numbered along the chain shown (N, C = ends).
Assays:
rat osteoclasts = test: rat osteoclast attachment assay compared with MG63 or NRK cell attachment; assay type: cell-based; conditions: FCS substrate, FIGS. 7 and 8
Procedure: To determine the effect of a peptide on the attachment of rat osteoclasts in vitro, 100 μl aliquots of the rat pup bone cell suspension described in Example II.B.2., above, were added in triplicate to 96 well "MAXISORP" plates coated with specific substrates or with FCS. Substrate coated plates were used to determine the ability of peptides to inhibit attachment or induce detachment of an osteoclast from a ligand such as vitronectin, fibronectin, osteopontin or collagen I (Collaborative Research), which are ligands present in bone. Substrates were added to 96 well plates (50 μl of a 5-10 μg/ml solution in sodium carbonate, pH 9.5) and incubated for 2 hr at 37° C. For FCS control wells, 100 μl 10% FCS was added. Wells were aspirated, then washed 2×with PBS and blocked with 1% bovine serum albumin in PBS for 2 hr at 37° C. Wells were aspirated and washed again 2× with PBS. Cells were seeded in duplicate at 4×10^4 cells/well. […]
Following incubation, the medium and nonadherent cells were removed by aspiration from each well. […] Adherent osteoclasts were counted by light microscopy. […]
MG63 and NRK cell lines were purchased from ATTC (Rockville Md.). […] Following staining, the stain was extracted with 20% acetic acid and the OD562 of the extracted stain was determined. […]
Selectivity of a peptide can be determined by comparing the results of FIGS. 7 and 8 (see, also FIG. 2).

[1] = system: αV β3 integrin, osteoclasts; test: series of assays of Example II for potency and selectivity (summary, FIG. 2)
Description: Peptides of the RGDNTic (SEQ ID NO: 56) pharmacophore group are characterized, in general, as having increased potency, whereas the peptides of the pharmacophore RGDDV (SEQ ID NO: 1) group generally have higher receptor selectivity. […] As used herein, the term "potency" or "potent" means that a peptide of the invention is active at a relatively low concentration in the assays described in Examples II and III. A potent peptide of the invention can be identified, for example, using the assays described in Examples II and III.
Selectivity can be due, for example, to the ability of a peptide of the invention to bind to αV β3 with greater affinity than it binds to other integrins. Thus, in addition to having selectivity, for example, for osteoclast binding to a matrix, a peptide of the invention also can display receptor selectivity and, therefore, more specifically alter receptor-mediated binding to a matrix. As used herein, the term "receptor selectivity" means that a peptide of the invention can bind to one receptor with greater affinity than it can bind to another receptor.

Swiss-Webster mice = test: PTH-induced hypercalcemia assay; assay type: in vivo; conditions: single dose, infused 4 hr after PTH
Description: Parathyroid hormone (PTH) activates osteoclasts, which are involved in bone resorption. Associated with the increased osteoclast activity is an increase in serum calcium. The PTH-induced hypercalcemia assay measures the level of serum calcium, which is an indication of bone resorption in a subject (Fischer et al., Endocrinology 132:1411-1413 (1993), which is incorporated herein by reference).
Swiss-Webster mice, which had been parathyroidectomized two weeks prior to beginning the assay, were obtained from Taconic Lab Animals and Services (Germantown N.Y.). Femoral vein catheters (PE-50 fused with PE10 polyethylene tubing; Becton Dickinson; Parsippany, N.J.) were installed in the mice, flushed and locked with heparinized saline (1:10), sutured to adjacent muscle and internalized within the inguinal space of the incision before closing the incision with wound clips. […]
The experiment was initiated by feeding the mice a calcium-deficient diet overnight, then injecting the mice the following morning with a bolus of 0.2 mg PTH/kg (hPTH 1-34; Bachem; Torrance Calif.), intravenously. […] Various doses of a peptide or vehicle were infused into an animal for 4 hr, then ionized serum calcium again was measured. […] Serum calcium measurements were expressed as the difference between the value 30 min before the PTH pulse and 4 hr after peptide infusion was started. […]

chick osteoclasts = test: chick osteoclast / total cell detachment assay; assay type: cell-based; conditions: FIG. 5
Procedure: Peptides were evaluated for their ability to detach osteoclasts from a matrix consisting of serum-coated microtiter plates. In prescreening assays, 5 μM of the various RGD peptides was used to identify RGD peptides that released at least 60% of the osteoclasts from the matrix.
Osteoclasts were isolated from embryonic chicks using a modification of the methods of Boyde et al., Br. Dent. J. 156:216 (1984) and Chambers et al., Endocrinology 116:234 (1985), each of which is incorporated herein by reference. […]
The cells were incubated for 90 min at 37° C. in an atmosphere containing 10% CO2. […] Cell layers were stained for 5 min using 0.1% crystal violet and multinucleated osteoclasts were counted by light microscopy. […]
RGD peptides that are selective for releasing osteoclasts, but not the other cell types, from the matrix were identified by extracting the crystal violet stain from fixed cells and comparing the amount of staining in a control well (no peptide) with the amount of staining following incubation of the cells with an RGD peptide. Crystal violet was extracted using 20% acetic acid and the optical density of the resulting solution was measured in 96 well microtiter plates by spectrophotometry at 562 nm. […]

## CC(C)[C@@H]1NC(=O)[C@H](CC(=O)O)NC(=O)[C@H](CC(=O)O)NC(=O)CNC(=O)[C@H](CCCNC(=N)N)NC(=O)CC[C@@H](C(N)=O)NC1=O [peptide 386, RGDDVE-NH2] (RGDDVE-NH2; lactam N-6)
Rat osteoclasts
  selectivity: osteoclast attachment versus MG63 or NRK attachment: selective
[1]
  potency and selectivity together (summary classification): both potent and selective
  receptor selectivity (summary classification): particularly receptor selective
[1]; FIG. 2
  activity of peptides with minimally essential elements: demonstrate activity
Swiss-Webster mice
  serum calcium level: relatively low level of serum calcium
Chick osteoclasts
  selective detachment of osteoclasts as compared to other cell types: selective detachment of osteoclasts
